Assay results reported in publication doi:10.1101/2025.03.14.643404, “A Bivalent Molecular Glue Linking Lysine Acetyltransferases to Oncogene-induced Cell Death” (bioRxiv, 2025).

Experiments:
[1] = system: DB; assay: Cell viability, 7 days compound treatment (Cell Titer-Glo), DB; format: cell-based; details: Homo sapiens, 168 h, read-out: IC50 of antiproliferation
Description: Fifteen thousand cells were seeded in 100 μl of media per well of a U-bottom 96-well plate and treated with digitally dispensed drugs (Tecan D300e) for the indicated times and doses. After 96 hours, plates were centrifuged for 750 rpm for 3 minutes, and old media was exchanged for 100 μl of fresh media. Drug treatment was then repeated at the indicated doses. 72 hours following media change, cells were transferred to 96 well flat-bottom opaque plates. Viability was measured by adding 25 μL Cell Titer-Glo reagent (Promega G7570) to each well and luminescence was measured (BMG Labtech Pherastar FS). The background luminescence was subtracted, and the signal was normalized to DMSO-treated cells. IC50 measurements on cell lines were calculated using at least three biological replicates by separate cell passages. Fit of dose–response curves to data and statistical analysis was performed using GraphPad PRISM using the four-parameter log(inhibitor) vs response function.

[2] = system: H2BK20ac; assay: ChIP-seq for H2BK20ac in SUDHL5; format: cell-based, human; details: SUDHL5, 1 nM, 1 hour
Description: 25–30 million cells were treated with TCIP3 or DMSO for indicated timepoints. Cells were washed in PBS containing TCIP3 or DMSO and crosslinked for 11 min in CiA Fix Buffer (50 mM HEPES pH 8.0, 1 mM EDTA, 0.5 mM EGTA, 100 mM NaCl) with addition of formaldehyde to a final concentration of 1%. The crosslinking reaction was quenched by glycine added at 0.125 M final concentration. Crosslinked cells were centrifuged at 1,000 × g for 5 min. […] Library size distributions were confirmed using an Agilent Bioanalyzer and High Sensitivity DNA reagents (Agilent 5067) and concentrations determined by qPCR. […]
The data quality was checked using fastq (https://www.bioinformatics.babraham.ac.uk/projects/fastqc/). The raw reads were trimmed from adapters with cutadapt (parameters: -a […] -A […]) and raw reads were aligned to hg38 human genome assembly using bowtie2 (parameters: --local --maxins 1000). Low quality reads, duplicated reads and reads with multiple alignments were removed using samtools[120] and Picard (https://broadinstitute.github.io/picard/). macs2[121] was used to map position of peaks with FDR cutoff of 0.05. […] All browser tracks and metaprofiles shown were calculated with sequence-depth-normalized, replicate-merged (bigWigMerge[125]) and, for ChIP-seq, input-subtracted data (deeptools bigWigCompare). […]

Structure (SMILES): CNC(=O)COc1cc2cc(Nc3nc(N4CCC(C(=O)N5CCN(CCC(=O)N6CCC(n7nc(N8CCCc9cc(-c%10cnn(C)c%10)c(C(F)F)cc98)c8c7CCN(C(=O)NC)C8)CC6)CC5)CC4)ncc3Cl)cc(OC)c2n(C)c1=O [TCIP3]
- IC50 [1]: 9.8 nM
- H2BK20ac peaks gained [2]: 936
- H2BK20ac peaks lost [2]: 4,346
